# Measurements taken from patent US20130084272A1, “COMPOSITIONS, KITS AND METHODS FOR NUTRITIONAL SUPPLEMENTATION WITH TWELVE CARBON CHAIN FATTY ACIDS AND TWELVE CARBON CHAIN ACYLGLYCEROLS” (priority 2011, published 2013).
# Where two headings read alike, the source gives them in different places.
# Legend:
# bacteria = settings: Batovska et al. 2009; cited from earlier work
# [1] = in vivo
# Description: Fourteen lactating women drink two test formulas, each containing a different fat: menhaden oil, and coconut oil. The subjects collect a midfeeding milk sample before consuming the breakfast test formula and additional samples at 6, 10, 14, and 24 h and then once daily for 4-7 d. Fatty acids of special interest included eicosapentaenoic and docosahexaenoic acids from menhaden oil, and lauric acid from coconut oil.
# [2] = Francois et al. 1998; cited from earlier work
# [3] = for Lauric acid content of milk: lactating women, baseline 3.9%
# Excerpt: Fifty women will partake in the study. Lactating women aged 19-43 y participate in the study during the first 6 months of lactation. The women remain in the study for about 10 weeks including a 2-wk washout period between consumption of the test fatty acids. The diets of the subjects remain constant during the study. […] Subjects consume the coconut oil composition once in 2-wk intervals. A 40 g coconut oil composition is consumed in the morning by each patient in place of breakfast. Subjects collect milk samples once in the morning before consuming the test formula; once at each of the following time points after consuming the formula: 6, 10, 14, and 24 h; and once daily for 4-7 days.
Compound,Antibacterial activity among medium chain fatty acids and their monoacylglycerols (bacteria),Time of maximum increase in human milk [1],Time to significant increase in human milk after consumption of the test formula [1],Time to significant increase in human milk after consumption by the lactating mother [2],"Milk content of lauric acid over time ([3]; ingestion of formula containing 40 g coconut oil, P<0.001)",Lauric acid content of milk ([3]; 10 h after consuming 40 g coconut oil composition),Lauric acid content of milk ([3]; 14 hr after consuming 40 g coconut oil composition),Time remaining significantly elevated in milk ([1]; human)
"CCCCCCCCCCCC(=O)OCC(O)CO (stereo not drawn) [monolaurin, glycerol monolaurate]",most active,–,–,–,–,–,–,–
CCCCCCCCCCCC(=O)O [lauric acid],–,14 h,≤ 6 h,≤ 6 h,increases,9.2 % of fatty acids,9.6 % of fatty acids,–
CC/C=C\C/C=C\C/C=C\C/C=C\C/C=C\CCCC(=O)O [eicosapentaenoic acid],–,14 h,≤ 6 h,–,–,–,–,–
CC/C=C\C/C=C\C/C=C\C/C=C\C/C=C\C/C=C\CCC(=O)O [docosahexaenoic acid],–,24 h,≤ 6 h,–,–,–,–,2 days
